How the values were obtained:
[1] = system: cytosolic and nuclear proteins, histone proteins H3 and H4; test: Lysine acetylation profile of cytosolic and nuclear proteins in H4 cells; format: cell-based, human; conditions: 48 hours
Protocol: FIG. 8. […] (A and B) H4 cells were treated with either compound 9 or 19 for 48 hours prior to Western blot assessment of the acetylation profile of cytosolic (A) and nuclear (B) proteins. (C) The nuclear fraction used in (B) was also used to assess the lysine acetylation profile of the histone proteins H3 and H4.
(§1) Western blotting was performed on a 4-12% Bis-Tris SDS-PAGE system (NuPAGE; Invitrogen, Carlsbad, Calif., USA) as described previously (Costantini et al., 2006; Jonas et al., 2008; Jonas et al., 2010; Ko and Puglielli, 2007; Ko and Puglielli, 2009; Pehar et al., 2010). The following antibodies were used in this study: anti-acetylated lysine (monoclonal; cat. no. ab409; Abcam, Cambridge, Mass., USA); anti-BACE1 (polyclonal; cat. no. ab2077; Abcam); anti-Myc (monoclonal; cat. no. sc-40; santa cruz, Santa Cruz, Calif., USA); anti-ATases/NAT8 (polyclonal; cat. no. AP4957c; Abgent, San Diego, Calif., USA); anti-actin (monoclonal; cat. no. A1978; Sigma, St Louis, Mo., USA); anti-C99 (monoclonal; cat. no. M066-3; MBL, Woburn, Mass., USA); anti-acetylated H3 (polyclonal; cat. no. 06-599, Millipore, Billerica, Mass.); anti-acetylated H4 (polyclonal; cat. no. 06-866, Millipore, Billerica, Mass.); anti-αPCNA (polyclonal; cat. no. AP2835b, Abgent, San Diego, Calif., USA).
Cytosolic and nuclear extracts were prepared as described before (Ko and Puglielli, 2007). For cytosolic extracts, cells were homogenized in homogenization buffer containing 25 mM Tris-HCl, pH 7.4, 0.5 mM EDTA, 0.5 mM EGTA, and a protease inhibitor mixture. The homogenates were centrifuged at 14,000×g for 15 min, and supernatants were collected as cytosolic proteins.
For nuclear extracts cells were scraped into ice-cold phosphate-buffered saline and collected by centrifugation. The cell pellets were suspended in 3 volumes of lysis buffer (20 mM Hepes, pH 7.9, 10 mM KCl, 1 mM EDTA, pH 8.0, 0.2% Nonidet P-40, 10% glycerol, and a protease inhibitor mixture) followed by incubation on ice for 10 min. Cell suspensions were gently pipetted up and down; the lysates were then centrifuged at 14,000×g for 5 min at 4° C. to obtain nuclear pellets. Nuclear pellets were washed twice with cell lysis buffer (lacking Nonidet P-40 and protease inhibitor mixture) and then resuspended in 2 volumes of nuclear extract buffer (20 mM Hepes, pH 7.9, 10 mM KCl, 1 mM EDTA, pH 8.0, 420 mM NaCl, 20% glycerol, and a protease inhibitor mixture). The nuclei were extracted by incubation at 4° C. for 30 min with gentle agitation followed by centrifugation at 14,000×g at 4° C. for 5 min; the resultant supernatant fraction was used as a nuclear extract.

BACE1 = test: Western blot assessment of BACE1 levels in H4 cell lysates; format: cell-based, human; conditions: H4 cells, 48 hours
Protocol: as §1
Samples were imaged with classical chemiluminescence and with the LiCor Odyssey Infrared Imaging System (LI-COR Biosciences, Lincoln, Nebr., USA). For chemiluminescent detection, HRP-conjugated anti-mouse or anti-rabbit secondary antibodies were used at 1:6000 dilution in 3% BSA/TBST (GE Healthcare). Detection was performed with either Lumiglo (KPL) or ECL Plus (GE Healthcare). For infrared imaging, goat anti-rabbit Alexa Fluor 680-conjugated secondary antibodies were used.
To assess their biological effects, we treated human neuroglioma (H4) cells with 10 μM of both compounds. […] This might reflect different kinetics of inhibition as well as different IC50s (see FIG. 2). Alternatively, it might also be explained by different cell-permeability properties. In fact, the cLog P for compound 9 and 19 is 5.03 and 3.19, respectively. The cLog P (or partition coefficient) is an indication of partition properties of a compound between hydrophobic and hydrophilic compartments. Higher values indicate preferential distribution in hydrophobic environments and, as such, increased permeability across biological membranes.

APP695/swe mice = test: Long-term potentiation in hippocampal brain slices of treated mice; format: in vivo, mouse; conditions: 50 mg/kg/day in diet, 4 months
Protocol: FIG. 15. Compound 9 prevents synaptic deficits in APP695/swe mice. Non-Transgenic (Non-Tg) and APP695/swe mice were fed a diet containing 50 mg/kg/day of compound 9 for 4 months prior to synaptic assessment. Compound 9 prevented the severe deficits of the late component of long term potentiation (LTP) that characterizes the APP695/swe phenotype (A). […] Field excitatory postsynaptic potential (fEPSP) as percent of baseline (100) is shown as a function of time. Calibration: 1 mV, 1 ms. All values are mean±SEM. *P<0.0001.
In order to assess disease-relevant functions, we performed a pilot study with APP695/swe mice, a commonly-used mouse model of AD. APP695/swe mice express a modified mouse APP cDNA encoding the 695-amino acid isoform with a “humanized” Aβ domain that includes the familial AD-associated Swedish double mutation. APP695/swe mice develop synaptic deficits at 3-5 months of age, well before any sign of neurodegeneration can be observed. The cognitive deficits as well as the amyloid plaques can be detected only later, at approximately 12-18 months of age (reviewed in Duyckaerts, et al., 2008).
A group of non-transgenic and APP695/swe mice were fed a diet containing 50 mg/kg/day of compound 9. Treatment started at weaning (˜6 weeks of age) and lasted 4 months. […]

O=c1c(Cl)c2oc3ccccc3nc-2c2ccccc12 [Compound 9]
acetylation profile of cytosolic and nuclear proteins [1]: Neither compound 9 nor compound 19 produced significant changes | acetylation profile of the histone protein H3 and H4 ([1]; nuclear fraction): slight reduction | levels of BACE1 (BACE1; 10 μM): significant reduction | levels of BACE1 with increasing concentrations (BACE1; increasing concentrations): dose-dependent decrease | defect in late component of long-term potentiation (LTP) (APP695/swe mice; APP695/swe mice): drastically prevented | effect on LTP in non-transgenic mice (APP695/swe mice; non-transgenic mice): no effect was observed
